Among the data in article PMC7305236, “The atypical chemokine receptor ACKR3/CXCR7 is a broad-spectrum scavenger for opioid peptides” (Nature Communications, 2020) are activation values, retold here.

Like-named read-outs stand apart in the source and are kept apart here.

Holding throughout (test): Figure S2a opioid peptide screen on chemokine receptors
Common to all, as to type: cell-based
Set-up in all cases: dose or concentration left out as unconfirmed

In one experiment the target is T1, CCR6 (Homo sapiens, UniProt P51684).
T1 construct: expressed in transfected cells
T1 sequence (P51684 1-374): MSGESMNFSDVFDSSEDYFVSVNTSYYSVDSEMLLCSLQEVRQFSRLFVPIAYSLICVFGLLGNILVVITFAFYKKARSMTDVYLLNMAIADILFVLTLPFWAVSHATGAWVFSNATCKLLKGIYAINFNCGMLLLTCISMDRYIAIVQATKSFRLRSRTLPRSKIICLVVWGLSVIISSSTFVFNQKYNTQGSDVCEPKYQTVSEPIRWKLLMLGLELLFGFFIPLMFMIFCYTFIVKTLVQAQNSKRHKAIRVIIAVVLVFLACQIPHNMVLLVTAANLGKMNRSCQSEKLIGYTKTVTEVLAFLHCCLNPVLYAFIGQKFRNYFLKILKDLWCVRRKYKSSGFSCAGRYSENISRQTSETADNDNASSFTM

A further experiment addresses T2, CCR1 (Homo sapiens, UniProt P32246).
T2 construct: expressed in transfected cells
T2 sequence (P32246 1-355): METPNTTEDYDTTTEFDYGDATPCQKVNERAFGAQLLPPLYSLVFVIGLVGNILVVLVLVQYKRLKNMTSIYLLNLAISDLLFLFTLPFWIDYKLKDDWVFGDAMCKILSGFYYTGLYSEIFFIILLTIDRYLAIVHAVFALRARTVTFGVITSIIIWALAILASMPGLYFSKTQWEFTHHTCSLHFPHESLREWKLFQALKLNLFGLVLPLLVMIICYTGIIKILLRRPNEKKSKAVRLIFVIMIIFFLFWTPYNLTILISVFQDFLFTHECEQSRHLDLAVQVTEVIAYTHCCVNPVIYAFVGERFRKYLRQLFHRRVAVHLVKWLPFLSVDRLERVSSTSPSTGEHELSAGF

The next experiment deals with T3, CCR9 (Homo sapiens, UniProt P51686).
T3 construct: expressed in transfected cells
T3 sequence (P51686 1-369): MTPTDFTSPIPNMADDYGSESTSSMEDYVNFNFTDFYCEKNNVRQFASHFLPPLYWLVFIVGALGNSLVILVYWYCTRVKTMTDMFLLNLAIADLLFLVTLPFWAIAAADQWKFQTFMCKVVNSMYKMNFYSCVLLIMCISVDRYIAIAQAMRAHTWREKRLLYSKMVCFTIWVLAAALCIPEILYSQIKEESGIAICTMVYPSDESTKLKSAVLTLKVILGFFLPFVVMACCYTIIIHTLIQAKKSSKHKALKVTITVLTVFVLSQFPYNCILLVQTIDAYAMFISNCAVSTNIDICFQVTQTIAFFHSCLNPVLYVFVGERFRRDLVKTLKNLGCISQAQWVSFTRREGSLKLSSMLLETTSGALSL

The target of a further experiment is T4, CCR2 (Homo sapiens, UniProt P41597).
T4 construct: expressed in transfected cells
T4 sequence (P41597 1-360 isoform P41597-2): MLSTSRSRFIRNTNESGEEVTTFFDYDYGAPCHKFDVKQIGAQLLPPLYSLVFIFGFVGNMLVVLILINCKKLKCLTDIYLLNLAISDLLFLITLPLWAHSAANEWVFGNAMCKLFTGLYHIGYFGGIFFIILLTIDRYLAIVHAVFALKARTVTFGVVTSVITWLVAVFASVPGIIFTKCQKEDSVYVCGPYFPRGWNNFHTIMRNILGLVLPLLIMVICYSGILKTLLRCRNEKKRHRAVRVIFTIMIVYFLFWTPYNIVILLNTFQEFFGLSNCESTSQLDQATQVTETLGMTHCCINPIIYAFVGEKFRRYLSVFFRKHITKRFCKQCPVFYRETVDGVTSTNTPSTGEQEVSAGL

For another experiment, the target named is T5, CXCR3B (Homo sapiens, UniProt P49682).
T5 construct: expressed in transfected cells; host or cells: U87 cells
T5 sequence (P49682 1-415 isoform P49682-2): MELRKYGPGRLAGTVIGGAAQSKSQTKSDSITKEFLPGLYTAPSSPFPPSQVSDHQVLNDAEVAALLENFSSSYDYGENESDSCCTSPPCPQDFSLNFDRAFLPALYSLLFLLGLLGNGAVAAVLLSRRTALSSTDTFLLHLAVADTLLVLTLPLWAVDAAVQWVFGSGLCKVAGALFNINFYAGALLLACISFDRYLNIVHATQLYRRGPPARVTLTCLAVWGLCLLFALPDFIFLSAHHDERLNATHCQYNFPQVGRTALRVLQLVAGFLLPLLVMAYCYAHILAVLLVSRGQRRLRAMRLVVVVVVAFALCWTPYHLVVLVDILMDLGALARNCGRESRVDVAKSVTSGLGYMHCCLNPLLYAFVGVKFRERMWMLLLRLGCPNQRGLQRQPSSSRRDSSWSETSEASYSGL

The target in a further experiment is T6, CXCR2 (Homo sapiens, UniProt P25025).
T6 construct: expressed in transfected cells
T6 sequence (P25025 1-360): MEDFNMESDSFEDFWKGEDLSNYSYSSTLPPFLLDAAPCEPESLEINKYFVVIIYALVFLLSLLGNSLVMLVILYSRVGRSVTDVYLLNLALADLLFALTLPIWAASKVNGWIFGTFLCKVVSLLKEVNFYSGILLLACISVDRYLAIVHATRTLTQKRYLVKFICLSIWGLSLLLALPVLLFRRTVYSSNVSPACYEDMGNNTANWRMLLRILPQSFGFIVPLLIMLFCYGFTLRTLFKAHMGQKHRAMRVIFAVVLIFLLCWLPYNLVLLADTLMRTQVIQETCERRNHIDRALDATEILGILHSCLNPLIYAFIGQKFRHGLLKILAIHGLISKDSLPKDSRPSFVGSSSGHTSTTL

Where [1] appears, read: replicate 1, read-out: CCR6 activity, ctrl+ = 100.
Setting [2] is: replicate 2, read-out: CCR6 activity, ctrl+ = 100.
The mark [3] stands for this setting: replicate 1, read-out: CCR1 activity, ctrl+ = 100.
Setting [4] is: replicate 2, read-out: CCR1 activity, ctrl+ = 100.
The mark [5] stands for this setting: replicate 1, read-out: CCR9 activity, ctrl+ = 100.
[6] abbreviates: replicate 2, read-out: CCR9 activity, ctrl+ = 100.
Where [7] appears, read: replicate 1, read-out: CCR2 activity, ctrl+ = 100.
Where [8] appears, read: replicate 2, read-out: CCR2 activity, ctrl+ = 100.
The mark [9] stands for this setting: replicate 1, read-out: CXCR3B activity, ctrl+ = 100.
Setting [10] is: replicate 2, read-out: CXCR3B activity, ctrl+ = 100.
[11] abbreviates: replicate 1, read-out: CXCR2 activity, ctrl+ = 100.
[12] abbreviates: replicate 2, read-out: CXCR2 activity, ctrl+ = 100.
Where [13] appears, read: replicate 3, read-out: CCR6 activity, ctrl+ = 100.
The mark [14] stands for this setting: replicate 3, read-out: CCR1 activity, ctrl+ = 100.
Setting [15] is: replicate 3, read-out: CCR9 activity, ctrl+ = 100.
Where [16] appears, read: replicate 3, read-out: CCR2 activity, ctrl+ = 100.
[17] abbreviates: replicate 3, read-out: CXCR3B activity, ctrl+ = 100.
The mark [18] stands for this setting: replicate 3, read-out: CXCR2 activity, ctrl+ = 100.

`CC[C@H](C)[C@H](NC(=O)[C@H](CCCNC(=N)N)NC(=O)[C@H](CCCNC(=N)N)NC(=O)[C@H](CC(C)C)NC(=O)[C@H](Cc1ccccc1)NC(=O)CNC(=O)CN)C(=O)N[C@@H](CCCNC(=N)N)C(=O)N1CCC[C@H]1C(=O)N[C@@H](CCCCN)C(=O)N[C@@H](CC(C)C)C(=O)N[C@@H](CCCCN)C(=O)N[C@@H](Cc1c[nH]c2ccccc12)C(=O)N[C@@H](CC(=O)O)C(=O)N[C@@H](CC(N)=O)C(=O)N[C@@H](CCC(N)=O)C(=O)O` [Dynorphin 2-17]: the activation at CCR6 (setting [1]) is -0.438%; at CCR6 (setting [2]), -1.06%; at CCR1 (setting [3]), -21%; on CCR1 (setting [4]), -15.3%; on CCR9 (setting [5]), 1.95%; at CCR9 (setting [6]) it was 0.179%. Also, the activation at CCR2 (setting [7]) is 0.747%; at CCR2 (setting [8]) it was -1.44%; at CXCR3B (setting [9]), -1.19%; on CXCR3B (setting [10]), -3.44%; on CXCR2 (setting [11]), -7.18%; at CXCR2 (setting [12]) it was -15.9%.

In the case of `CSCC[C@H](NC(=O)[C@H](Cc1ccccc1)NC(=O)CNC(=O)CNC(=O)[C@@H](N)Cc1ccc(O)cc1)C(=O)N[C@@H](CCCNC(=N)N)C(=O)N[C@@H](CCCNC(=N)N)C(=O)N[C@H](C(=O)NCC(=O)N[C@@H](CCCNC(=N)N)C(=O)N1CCC[C@H]1C(=O)N[C@@H](CCC(=O)O)C(=O)N[C@@H](Cc1c[nH]c2ccccc12)C(=O)N[C@@H](Cc1c[nH]c2ccccc12)C(=O)N[C@@H](CCSC)C(=O)N[C@@H](CC(=O)O)C(=O)N[C@@H](Cc1ccc(O)cc1)C(=O)N[C@@H](CCC(N)=O)C(=O)N[C@@H](CCCCN)C(=O)N[C@@H](CCCNC(=N)N)C(=O)N[C@@H](Cc1ccc(O)cc1)C(=O)NCC(=O)O)C(C)C` [BAM22], the activation at CCR6 (setting [1]) was -2.07%; at CCR6 (setting [2]), -2.99%; on CCR6 (setting [13]), -1.86%; on CCR1 (setting [3]) it was -7.62%; at CCR1 (setting [4]) it was 9.7%; at CCR1 (setting [14]), 10.5%. The activation is -0.202% at CCR9 (setting [5]); -2.13% on CCR9 (setting [6]); 5.56% on CCR9 (setting [15]); -0.243% at CCR2 (setting [7]); -1.08% at CCR2 (setting [8]); 1.22% at CCR2 (setting [16]). Further, the activation at CXCR3B (setting [9]) is -1.43%; at CXCR3B (setting [10]) it was 0.626%; at CXCR3B (setting [17]) it was 5.18%; on CXCR2 (setting [11]), -3.38%; at CXCR2 (setting [12]), -4.91%; at CXCR2 (setting [18]) it was -1.55%.

On to `CC(C)C[C@H](NC(=O)[C@H](CCCCN)NC(=O)[C@H](CCCN=C(N)N)NC(=O)[C@H](C)NC(=O)[C@H](CO)NC(=O)[C@H](CCCCN)NC(=O)[C@H](CCCN=C(N)N)NC(=O)[C@H](C)NC(=O)CNC(=O)[C@@H](NC(=O)[C@H](Cc1ccccc1)NC(=O)CNC(=O)CNC(=O)[C@@H](N)Cc1ccccc1)[C@@H](C)O)C(=O)N[C@@H](C)C(=O)N[C@@H](CC(N)=O)C(=O)N[C@@H](CCC(N)=O)C(=O)O` [Nociceptin], for which the activation was -0.76% at CCR6 (setting [1]); 0.601% on CCR6 (setting [2]); -16.6% at CCR1 (setting [3]); -34.2% on CCR1 (setting [4]); 0.361% on CCR9 (setting [5]); 3.44% at CCR9 (setting [6]). The activation on CCR2 (setting [7]) was -0.0919%; at CCR2 (setting [8]), -3.09%; at CXCR3B (setting [9]), -0.23%; on CXCR3B (setting [10]), -6.64%; on CXCR2 (setting [11]) it was -2.08%; at CXCR2 (setting [12]), -14.7%.

As for `CC[C@H](C)[C@H](NC(=O)[C@H](CCCNC(=N)N)NC(=O)[C@H](CCCNC(=N)N)NC(=O)[C@H](CC(C)C)NC(=O)[C@H](Cc1ccccc1)NC(=O)CNC(=O)CNC(=O)[C@@H](N)Cc1ccc(O)cc1)C(=O)N[C@@H](CCCNC(=N)N)C(=O)N1CCC[C@H]1C(=O)N[C@@H](CCCCN)C(=O)N[C@@H](CC(C)C)C(=O)N[C@@H](CCCCN)C(=O)N[C@@H](Cc1c[nH]c2ccccc12)C(=O)N[C@@H](CC(=O)O)C(=O)N[C@@H](CC(N)=O)C(=O)N[C@@H](CCC(N)=O)C(=O)O` [Dynorphin A], the activation is -2.27% at CCR6 (setting [1]); -1.32% on CCR6 (setting [2]); -4.07% at CCR6 (setting [13]); -16.7% on CCR1 (setting [3]); 4.28% on CCR1 (setting [4]); 6.56% at CCR1 (setting [14]). The activation at CCR9 (setting [5]) is 0.116%; at CCR9 (setting [6]) it was -0.279%; on CCR9 (setting [15]), 10.9%; at CCR2 (setting [7]) it was -0.0585%; at CCR2 (setting [8]) it was -2.61%; on CCR2 (setting [16]), -0.105%. For the same compound, the activation is -2.77% at CXCR3B (setting [9]); 1.06% on CXCR3B (setting [10]); -1.99% at CXCR3B (setting [17]); -9.63% on CXCR2 (setting [11]); -9.59% on CXCR2 (setting [12]); 0.355% at CXCR2 (setting [18]).
